This note sets out measurements from patent publication US20030186423A1, “Amidase from variovorax” (Degussa AG, priority 2001, published 2003).

Format in all cases: biochemical, Variovorax paradoxus
In test [1] the test system is D-amidase. The test is described as follows: Kinetic cleavage of racemic amino acid amides: enantioselectivity as a function of the conversion. As to the method:
To evaluate the suitability for kinetic cleavage of racemic DL-Tle-NH2, the enantioselectivity was determined as a function of the conversion.
DL-Valin-, DL-leucin- and DL-phenylalaninamide were alos tested in this respect. For this, the enantioselectivity was determined as function of the conversion with partly purified enzyme from Variovorax paradoxus 19-3 after the 1st chromatography step.
(§1) The separation and quantitative determination of the enantiomers D- and L-tert-leucine were carried out by a “chiral derivatization” on the basis of o-phthaldialdehyde (OPA)/N-isobutyryl-L-cysteine or N-isobutyryl-D-cysteine (Brückner, H.; Wittner R. and Godel H. (1991), Fully automated high-performance liquid chromatographic separation of DL-amino acids derivatized with o-Phthaldialdehyde together with N-isopropyl-cysteine. Application to food samples. Anal. Biochem. 144, 204-206). The diastereomeric isoindole derivatives formed were separated on an RP-18 (reversed phase) column and detected by fluorescence. A two-buffer system of aqueous acetate buffer and an acetonitrile/water mixture was used as the mobile phase.

Test [2] has as its system D-amidase. The test is described as follows: Specific activity of crude extracts and purified D-amidase for DL-Tle-NH2. The settings on record: DL-Tle-NH2 as the substrate. The procedure: (§2) In the conversion of tert-leucinamide (gen. acid amides) by the D-amidase, the formation of ammonia or ammonium ions and tert-leucine (gen. acid) in equimolar amounts occurs. […] The change in concentration of the components participating can be measured in an enzyme test, which comprises incubation of the following test batch for 10-60 minutes at 30° C.
(§3) The enzyme test was started by addition of the substrate and the reaction was stopped by heating at 95° C. for three minutes. The analysis of the reaction products was carried out for ammonium ions by enzymatic determination of ammonium by glutamate dehydrogenase (Bergmeyer, H.,U., and Beutler, H.-O. (1985) Ammonia. In: Methods of Enzymatic Analysis. VCH-Verlag, 3rd edition, vol. 8: 454-461, Weinheim) and for D- and L-tert-leucine by means of HPLC (Bruckner, H., Wittner R., and Godel H., (1991) Fully automated high-performance liquid chromatographic separation of DL-amino acids derivatized with o-phthaldialdehyde together with N-isopropyl-cysteine. Application to food samples. Anal. Biochem. 144(1): 204-206). Batches to which no substrate were added served as controls.

Test [3] concerns D-amidase. The test is described as follows: Enzyme test for N-formylated amino acid amides, NH4+ determination with glutamate dehydrogenase. As to the method: The cleavage of racemic N-formylated amino acid amides was investigated by using the D-amidase according to the invention. The enzyme used was a partly purified D-amidase after the 1st chromatography step. The activity was measured by determining the NH4^+ ions with glutamate dehydrogenase (Bergmeyer, H. U., and Beutler, H.-O. (1985), Ammonia. In: Methods of Enzymatic Analysis. VCH-Verlag, 3rd edition, vol. 8: 454-461, Weinheim). The following substrates were employed in the enzyme test at 10 mM. The enzyme glutamate dehydrogenase (GluDH; E.C.1.4.1.3) converts 2-oxoglutarate into L-glutamate, ammonium ions being consumed and NADH being oxidized to NAD+(Bergmeyer, H.,U. and Beutler, H.-O. (1985), Ammonia. In: Methods of Enzymatic Analysis. VCH-Verlag, 3rd edition, vol. 8: 454-461, Weinheim). The amount of NADH consumed during the reaction is equivalent to the amount of ammonium ions. The change in the concentration of NADH is the measurement parameter and can be determined spectrophotometrically at a wavelength of 340 nm.

Test [4] has as its system D-amidase. The test is described as follows: Enzyme test for amino acid amides and α-hydroxycarboxylic acid amides (HPLC or NH4+ determination). The settings on record: substrate 40 mM. As to the method: For prolinamide, and the α-hydroxycarboxylic acid amides lactic acid amide (Lac-NH2) and 2-hydroxy-4-methylmercaptobutyric acid amid (MHA-NH2), the methionine-analogous α-hydroxycarboxylic acid amide, determination of the product with the previous HPLC analysis is not possible. For these substrates, the activity was determined with the aid of NH4^+ determination. […] All the substrates were employed in the enzyme test at 40 mM. In the 4th column, for further comparison the activity for the lower enantiomer has been set at 1 and a relative activity for the preferred enantiomer has been calculated therefrom.
as §2, §3, §1

For test [5], the system named is D-amidase. The test is described as follows: Enzyme test for acid amides, activity by determination of ammonium ions with glutamate dehydrogenase. The settings on record: for Activity with respect to Tle-NH2: DL-Tle-NH2 = 1; for Relative act.: partly purified D-amidase after the 2nd chromatography step (0.51 U/mg). As to the method:
The activity was measured by determination of the ammonium ions with glutamate dehydrogenase (Bergmeyer, H. U., and Beutler, H.-O. (1985), Ammonia. In: Methods of Enzymatic Analysis. VCH-Verlag, 3rd edition, vol. 8: 454-461, Weinheim). […] The substrates were employed in the enzyme test at 40 mM, except for succinic acid diamide and adipic acid diamide, each at 10 mM, and benzylamide at 20 mM. Since the activities were determined only at in each case one substrate concentration, relative activities are stated.
as §2, §3
The enzyme glutamate dehydrogenase (GluDH; E.C.1.4.1.3) converts 2-oxoglutarate into L-glutamate, ammonium ions being consumed and NADH being oxidized to NAD+(Bergmeyer, H.,U. and Beutler, H.-O. (1985), Ammonia. In: Methods of Enzymatic Analysis. VCH-Verlag, 3rd edition, vol. 8: 454-461, Weinheim). The amount of NADH consumed during the reaction is equivalent to the amount of ammonium ions. The change in the concentration of NADH is the measurement parameter and can be determined spectrophotometrically at a wavelength of 340 nm.
The test components were pipetted into cells of plastic (1.5 ml semimicro disposable cells, Brand) and mixed and the extinction at 340 nm was determined after 5 min. 10 μl GluDH were then added, and after the reaction had gone to completion, as a rule after 30 min, the extinction was measured again.

Regarding `CC(C)(C)C(N)C(N)=O` (racemic) [DL-Tle-NH2, D,L-tert-Leucinamide], in the test with D-amidase [1] (both series of experiments (partly purified and virtually homogeneous enzyme)), the E value entry is “greater than 100”. Further, the “enantioselectivity with respect to D-Tle” value in the test with D-amidase [1] (partly purified enzyme after the 1st chromatography step, conversion of greater than 45%) was found to be 96.6%. The Specific activity in the test with D-amidase [2] (D-amidase after the first two purification steps) is 0.68 U/mg; with D-amidase [2] (crude extract of E. coli JM 101 expression clones), 80-210 mU/mg; with D-amidase [2] (homogeneously purified D-amidase from Variovorax paradoxus), 1.4 U/mg; in the test with D-amidase [4] (partly purified D-amidase after the 2nd chromatography step (0.56 U/mg), Pro-, Lac-, MHA-NH2 by NH4+ determination) it was 0.56 U/mg. In addition, the “Activity with respect to Tle-NH2” value in the test on D-amidase [3] (Table 4, DL-Tle-NH2 = 100) is on record as 100%; in the test with D-amidase [4] (DL-Tle-NH2 = 1) it was 1; in the test with D-amidase [5] (substrate 40 mM), 1. Further, the Relative act. in the test on D-amidase [3] (Table 4, substrate 10 mM, partly purified D-amidase after the 1st chromatography step) was 200 mU/mg; in the test on D-amidase [5] (substrate 40 mM) it was 0.51 U/mg.

Turning to `CC(C)[C@H](N)C(N)=O` (racemic) [DL-Val-NH2, valinamide], the E value with D-amidase [1] (conversion 3%) is listed as 190; in the test on D-amidase [1] (conversion 15%), 180; with D-amidase [1] (conversion 29%), 200; with D-amidase [1] (conversion 42%) it was 220; with D-amidase [1] (conversion 50%) it was 140; with D-amidase [1] (conversion 57%), 56. For the same compound, the “ee D-Val” value is given as 98.9% with D-amidase [1] (conversion 3%, partly purified enzyme after the 1st chromatography step); 98.7% with D-amidase [1] (conversion 15%, partly purified enzyme after the 1st chromatography step); 98.5% with D-amidase [1] (conversion 29%, partly purified enzyme after the 1st chromatography step); 98.1% in the test with D-amidase [1] (conversion 42%, partly purified enzyme after the 1st chromatography step); 95.1% with D-amidase [1] (conversion 50%, partly purified enzyme after the 1st chromatography step); 75.0% in the test on D-amidase [1] (conversion 57%, partly purified enzyme after the 1st chromatography step). Besides, the “Activity with respect to Tle-NH2” value in the test with D-amidase [3] (Table 5, DL-Val-NH2 = 100) is 100%. Also, the Relative act. with D-amidase [3] (Table 5, comparison of valinamide and N-formyl-valinamide) turned out to be 870 mU/mg.

Take Benzylamide: in the test with D-amidase [5] (substrate 20 mM), the “Activity with respect to Tle-NH2” value is 5.2 and the Relative act. is 2.6 U/mg.
